From publication PMC5108039, “Functional and Structural Characterization of a Novel HLA-DRB1*04:01-Restricted α-Enolase T Cell Epitope in Rheumatoid Arthritis” (Frontiers in Immunology, 2016)
Square brackets hold non-standard residues; d marks the D form. Peptide text beside a SMILES is read from it. Cit = NC(=O)NCCC[C@H](N)C(=O)O

Columns and labels:
HLA-DRB1*04:04 = HLA-DRB1*04:04 (Homo sapiens, UniProt P01903+P01911, A100R/A169T/F76Y/I96L/K127E/L162R/M171V/N62H/P40V/Q125Y/R42H/S133A/S149N/S66Y/V209L/W38E); assay: Competition peptide-binding assay, HLA-DRB1*04:04; conditions: competition with 0.02 μM biotinylated GAD65 270–285, plate-bound HLA-DRB1*04:04, increasing peptide concentrations; read-out: IC50 *04:04
Description: Stepwise binding analysis of 15-mer peptides derived from both native and citrullinated α-enolase to HLA-DRB1*01, *04:01, and *04:04 was performed using the ProImmune Class II Reveal assay (ProImmune, Oxford, UK). Relevant peptides were thereafter synthesized by GenScript (Piscataway, NJ, USA) and used for competition peptide-binding assays. […] Finally, peptide-binding affinity to the three different HLA alleles was assessed in direct binding assays in which N-terminally biotinylated epitopes (GenScript, Piscataway, NJ, USA) were incubated at concentrations from 5 to 0.05 μM with plate-bound relevant HLA-DRB1 molecules in the absence of a competitor peptide ([22]). The inflection point of the binding curve of a known binding epitope was used as a cutoff to separate weakly binding epitopes from background. […]

[1] = test system: cultured PBMCs from RA patients; assay: Bead-based multiplex cytokine assay in culture supernatants; type: cell-based, human; conditions: supernatants of cultured PBMCs, day 5, Luminex panel IL-10, IL-13, IL-17A, IL-17F, TNF-α, IFN-γ
Description: A bead-based multiplex cytokine assay was custom-designed by Invitrogen for simultaneous detection of IL-10, IL-13, IL-17A, IL-17F, TNF-α, and IFN-γ on a Luminex platform. Supernatants were collected at day 5 and stored at −80°C until used. Supernatants from RA patients were analyzed using the Luminex 100 system according to the manufacturer’s instructions.

HLA-DRB1*01:01 = HLA-DRB1*01:01 (Homo sapiens, UniProt P01903+P01911, A100R/D57E/F55L/F60I/F76Y/I96L/L162R/M171V/P40L/Q125E/R42F/V115G/Y59C); assay: Competition peptide-binding assay, HLA-DRB1*01:01; conditions: competition with 0.02 μM biotinylated HA306–318, plate-bound HLA-DRB1*01:01, increasing peptide concentrations; read-out: IC50 *01:01
Description: Stepwise binding analysis of 15-mer peptides derived from both native and citrullinated α-enolase to HLA-DRB1*01, *04:01, and *04:04 was performed using the ProImmune Class II Reveal assay (ProImmune, Oxford, UK). Relevant peptides were thereafter synthesized by GenScript (Piscataway, NJ, USA) and used for competition peptide-binding assays. […] Finally, peptide-binding affinity to the three different HLA alleles was assessed in direct binding assays in which N-terminally biotinylated epitopes (GenScript, Piscataway, NJ, USA) were incubated at concentrations from 5 to 0.05 μM with plate-bound relevant HLA-DRB1 molecules in the absence of a competitor peptide ([22]). The inflection point of the binding curve of a known binding epitope was used as a cutoff to separate weakly binding epitopes from background.
We decided to make use of HLA-DRB1*01:01 as a representative model for HLA-DRB1*01.

HLA-DRB1*04:01 = HLA-DRB1*04:01 (Homo sapiens, UniProt P01903+P01911, A100K/A169T/F76Y/I96L/K127E/L162R/M171V/N62H/P40V/Q125Y/R42H/S133A/S149N/S66Y/V115G/V209L/W38E); assay: biochemical
Description: The HLA-DR binding capacity of the identified peptides was assessed through in vitro competition binding assays in which native and citrullinated candidate epitopes were tested for their capacity to displace an established reference peptide (Figure 2; Table 2).

SMILES | IC50 (HLA-DRB1*04:04) [µM] | cytokine response in supernatants compared to the native peptide form [1] | IC50 (HLA-DRB1*01:01) [µM] | IC50 (HLA-DRB1*04:01) [µM]
CC[C@H](C)[C@H](NC(=O)[C@H](Cc1c[nH]cn1)NC(=O)[C@H](CCC(=O)O)NC(=O)[C@@H](NC(=O)[C@H](C)NC(=O)[C@H](CCCCN)NC(=O)[C@H](CO)NC(=O)[C@@H](NC(=O)CNC(=O)[C@H](CCCCN)NC(=O)CNC(=O)[C@H](CCSC)NC(=O)[C@H](Cc1ccc(O)cc1)NC(=O)[C@@H](N)CCCNC(N)=O)C(C)C)C(C)C)C(=O)N[C@@H](CC(N)=O)C(=O)O [cit56] (H-[Cit]YMGKGVSKAVEHIN-OH; N-terminus and C-terminus assumed) | > 50 | strong responses | > 50 | 
CC(C)C[C@H](NC(=O)CNC(=O)[C@H](CCCCN)NC(=O)[C@H](CO)NC(=O)[C@@H](N)[C@@H](C)O)C(=O)N[C@@H](Cc1ccccc1)C(=O)N[C@@H](CCCNC(=N)N)C(=O)N[C@@H](C)C(=O)N[C@@H](C)C(=O)N[C@H](C(=O)N1CCC[C@H]1C(=O)N[C@@H](CO)C(=O)NCC(=O)N[C@@H](C)C(=O)N[C@@H](CO)C(=O)O)C(C)C [peptide 26] (H-TSKGLFRAAVPSGAS-OH) | 0.5 |  | 1.4 | 4
CC(C)C[C@H](NC(=O)[C@@H]1CCCN1C(=O)[C@H](CC(N)=O)NC(=O)[C@H](CCCNC(=N)N)NC(=O)[C@H](Cc1ccccc1)NC(=O)[C@H](CC(N)=O)NC(=O)[C@H](CCCNC(=N)N)NC(=O)CNC(=O)[C@H](C)NC(=O)[C@H](Cc1ccccc1)NC(=O)[C@H](CCCCN)NC(=O)[C@H](C)NC(=O)[C@@H](N)CCCCN)C(=O)N[C@@H](C)C(=O)N[C@@H](CCCCN)C(=O)O [peptide 420] (H-KAKFAGRNFRNPLAK-OH) | 25 |  | > 50 | > 50
